{"source": "patent US20130197085A1", "about": "“AGENT AND METHOD FOR STABILIZING MEMBRANE PROTEIN” (priority 2007, published 2013)", "key": {"DPPIV": {"system": "DPPIV", "assay": "Western blotting of canalicular membrane vesicles (CMVs) from treated rats", "format": "in vivo, SD rat", "conditions": "CMVs from SD rats treated at 0.6 g/kg/day for 10 days", "protocol": "(§1) […] 4PBA or a vehicle was given to a male SD rat (6- to 7-week-old) for 10 days, divided over 3 administrations. Canalicular membrane vesicles were prepared from the liver of the rat (Akita et al., Biochim Biophys Acta, 1511: 7-16, 2001), and they were then used in Western blotting and a transport assay. Such transport assay was carried out by a rapid filtration method (Hayashi et al., Biochim Biophys Acta, 1738: 54-62, 2005)."}, "BSEP": {"biological_target": "T1, BSEP (Rattus norvegicus, UniProt O70127)", "T1 construct": "from tissue; host or cells: liver of male SD rats: in vivo for A27, canalicular membrane vesicles for A28 and A29", "T1 sequence (O70127 1-1321)": "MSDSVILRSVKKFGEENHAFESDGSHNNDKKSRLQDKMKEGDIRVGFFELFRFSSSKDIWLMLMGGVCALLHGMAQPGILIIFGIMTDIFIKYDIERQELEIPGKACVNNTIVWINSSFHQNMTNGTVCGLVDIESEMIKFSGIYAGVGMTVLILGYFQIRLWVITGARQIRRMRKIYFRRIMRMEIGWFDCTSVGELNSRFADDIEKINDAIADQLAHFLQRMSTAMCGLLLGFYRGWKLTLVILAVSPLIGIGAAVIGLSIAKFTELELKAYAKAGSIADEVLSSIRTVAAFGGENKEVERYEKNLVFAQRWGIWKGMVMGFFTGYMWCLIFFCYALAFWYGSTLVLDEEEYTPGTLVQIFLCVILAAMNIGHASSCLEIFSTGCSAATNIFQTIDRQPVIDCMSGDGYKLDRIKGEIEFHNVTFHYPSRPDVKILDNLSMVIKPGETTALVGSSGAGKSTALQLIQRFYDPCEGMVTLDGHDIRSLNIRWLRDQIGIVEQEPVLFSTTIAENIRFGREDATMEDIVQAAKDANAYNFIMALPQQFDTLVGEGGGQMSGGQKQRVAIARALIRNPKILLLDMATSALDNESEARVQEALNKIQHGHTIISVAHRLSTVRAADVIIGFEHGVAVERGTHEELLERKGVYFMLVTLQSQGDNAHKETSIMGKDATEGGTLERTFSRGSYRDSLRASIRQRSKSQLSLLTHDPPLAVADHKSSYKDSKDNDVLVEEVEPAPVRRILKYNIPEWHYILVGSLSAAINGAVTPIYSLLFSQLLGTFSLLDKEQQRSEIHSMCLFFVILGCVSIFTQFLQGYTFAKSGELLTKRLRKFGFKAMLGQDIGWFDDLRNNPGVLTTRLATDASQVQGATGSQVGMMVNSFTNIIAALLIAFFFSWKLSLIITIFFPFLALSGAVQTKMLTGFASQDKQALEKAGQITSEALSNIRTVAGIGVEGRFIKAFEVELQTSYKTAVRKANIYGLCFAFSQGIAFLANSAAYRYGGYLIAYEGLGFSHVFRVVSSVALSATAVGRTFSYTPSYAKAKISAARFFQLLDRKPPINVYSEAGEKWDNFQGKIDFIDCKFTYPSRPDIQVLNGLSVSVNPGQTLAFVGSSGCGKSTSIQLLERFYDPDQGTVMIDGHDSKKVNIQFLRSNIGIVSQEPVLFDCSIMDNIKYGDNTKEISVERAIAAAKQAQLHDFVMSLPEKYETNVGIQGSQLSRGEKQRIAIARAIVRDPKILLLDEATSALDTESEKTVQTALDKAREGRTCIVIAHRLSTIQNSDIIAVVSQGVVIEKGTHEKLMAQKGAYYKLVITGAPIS", "assay": "Western blotting of canalicular membrane vesicles (CMVs) from treated rats", "format": "in vivo, SD rat", "conditions": "CMVs from SD rats treated at 0.6 g/kg/day for 10 days", "protocol": "as §1"}, "P-gp": {"system": "P-gp", "assay": "Western blotting of canalicular membrane vesicles (CMVs) from treated rats", "format": "in vivo, SD rat", "conditions": "CMVs from SD rats treated at 0.6 g/kg/day for 10 days", "protocol": "as §1"}, "wild-type BSEP": {"biological_target": "T2, wild-type BSEP (Homo sapiens, UniProt O95342, L339V)", "T2 construct": "expressed in transfected cells; host or cells: MDCKII cells infected with recombinant adenovirus", "T2 sequence (O95342 whole entry L339V)": "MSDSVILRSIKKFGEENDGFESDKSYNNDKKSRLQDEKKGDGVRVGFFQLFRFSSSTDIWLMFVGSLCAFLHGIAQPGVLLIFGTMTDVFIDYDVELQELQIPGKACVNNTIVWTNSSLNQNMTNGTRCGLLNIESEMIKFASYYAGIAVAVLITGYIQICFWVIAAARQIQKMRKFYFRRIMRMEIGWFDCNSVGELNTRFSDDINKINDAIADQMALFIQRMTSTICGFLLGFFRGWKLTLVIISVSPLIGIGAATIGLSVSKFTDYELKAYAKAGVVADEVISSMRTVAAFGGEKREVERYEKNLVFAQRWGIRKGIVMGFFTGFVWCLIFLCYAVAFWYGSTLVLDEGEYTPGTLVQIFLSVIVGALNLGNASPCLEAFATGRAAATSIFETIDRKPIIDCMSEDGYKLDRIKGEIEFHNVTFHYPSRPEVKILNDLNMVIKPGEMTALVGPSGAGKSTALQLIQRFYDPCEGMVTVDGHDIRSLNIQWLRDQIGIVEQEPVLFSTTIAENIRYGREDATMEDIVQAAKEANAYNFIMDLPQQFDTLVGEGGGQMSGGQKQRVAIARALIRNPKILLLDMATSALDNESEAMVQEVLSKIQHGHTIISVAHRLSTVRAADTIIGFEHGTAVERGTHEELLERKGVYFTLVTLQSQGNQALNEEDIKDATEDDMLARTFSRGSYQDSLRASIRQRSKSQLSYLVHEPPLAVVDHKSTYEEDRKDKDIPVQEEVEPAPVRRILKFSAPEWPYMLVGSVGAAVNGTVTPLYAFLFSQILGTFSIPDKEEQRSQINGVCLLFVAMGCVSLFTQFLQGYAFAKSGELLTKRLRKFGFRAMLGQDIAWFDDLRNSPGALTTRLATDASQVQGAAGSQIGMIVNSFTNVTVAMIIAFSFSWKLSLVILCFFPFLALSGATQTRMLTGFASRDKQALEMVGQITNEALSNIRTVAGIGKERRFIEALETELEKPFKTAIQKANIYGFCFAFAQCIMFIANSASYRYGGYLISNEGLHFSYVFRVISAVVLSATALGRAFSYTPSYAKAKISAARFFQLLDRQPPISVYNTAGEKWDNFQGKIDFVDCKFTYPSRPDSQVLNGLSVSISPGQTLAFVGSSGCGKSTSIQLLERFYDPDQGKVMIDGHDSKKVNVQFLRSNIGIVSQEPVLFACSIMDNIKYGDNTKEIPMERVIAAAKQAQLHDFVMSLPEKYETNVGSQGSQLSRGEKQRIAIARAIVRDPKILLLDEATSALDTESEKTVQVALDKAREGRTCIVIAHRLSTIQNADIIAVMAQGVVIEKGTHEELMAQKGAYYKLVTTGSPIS", "assay": "Brefeldin A washing experiment, maturation of BSEP in MDCKII cells", "format": "cell-based", "conditions": "1 mM 4PBA", "protocol": "(§2) MDCKII cells were dispersed on a 6-well plate, resulting in a density of 2.5×10^5 cells/well. After completion of the culture for 24 hours, the confluent cells were infected with recombinant adenoviruses having the cDNAs of wild-type, E297G and D482G BSEPs, and GFP, at 200 MOI. After completion of the infection, the cells were cultured for 12 hours. Thereafter, in order to inhibit the transport of BSEP from the endoplasmic reticulum to the Golgi body, the cells were treated in the presence or absence of 5 μg/ml brefeldin A (Sigma). After completion of the treatment for 2 hours, in the presence or absence of brefeldin A, 4PBA was added to the cells to a concentration of 1 mM. At the time point of 12 hours after the 4PBA treatment, a crude membrane fraction was prepared. The obtained fraction was separated by 6% SDS-PAGE, and Western blotting was then carried out.\n(§3) The promotion of a process of converting an immature BSEP existing in the endoplasmic reticulum to a mature BSEP existing on the cell surface is considered to be a post-translation mechanism that may be associated with an increase in the expression of the mature BSEP on the cell surface. In order to evaluate the effects of the 4PBA treatment on the maturation of a BSEP, the transport of the BSEP from the endoplasmic reticulum to the Golgi body was inhibited with brefeldin A (BFA), the BFA was then washed out, and the maturation rate of the BSEP on MDCKII cells was measured. BFA is an agent for inducing the accumulation of an immature BSEP existing in the endoplasmic reticulum (FIGS. 5A and 5B). The maturation rate was evaluated by washing out such BFA and then measuring an increased amount of the band density of a mature BSEP over time according to Western blotting. The band density of the mature BSEP was calculated by subtracting the band density at 0 (zero) hour from the band density at each measurement time (FIG. 5B). […] In addition, in the case of mature BSEPs, the expression levels were not changed until 3 hours after the washing out of BFA, regardless of the presence or absence of 4PBA. […] At the time point 8 hours after the washing out of BFA, the MDCKII cells treated with 4PBA were compared with the MDCKII cells that had not been treated with 4PBA. As a result, the expression level of a mature BSEP in the MDCKII cells treated with 4PBA was higher than the same expression level in the MDCKII cells that had not been treated with 4PBA."}, "D482G BSEP": {"biological_target": "T3, D482G BSEP (Homo sapiens, UniProt O95342, D482G/L339V)", "T3 construct": "expressed in transfected cells; host or cells: MDCKII cells infected with recombinant adenovirus", "T3 sequence (O95342 whole entry L339V/D482G)": "as the sequence (O95342 whole entry L339V) above, with D482G counted along it", "assay": "Brefeldin A washing experiment, maturation of BSEP in MDCKII cells", "format": "cell-based", "conditions": "1 mM 4PBA", "protocol": "as §2, §3"}, "E297G BSEP": {"biological_target": "T4, E297G BSEP (Homo sapiens, UniProt O95342, E297G/L339V)", "T4 construct": "expressed in transfected cells; host or cells: MDCKII cells infected with recombinant adenovirus", "T4 sequence (O95342 whole entry E297G/L339V)": "as the sequence (O95342 whole entry L339V) above, with E297G counted along it", "assay": "Brefeldin A washing experiment, maturation of BSEP in MDCKII cells", "format": "cell-based", "conditions": "1 mM 4PBA", "protocol": "as §2, §3"}, "[1]": {"conditions": "8 hours after the washing out of BFA"}, "[2]": {"conditions": "immediately after the washing out of BFA (hour 0)"}}, "data": [{"smiles": "O=C(O)CCCc1ccccc1", "note": "[4PBA, 4-phenylbutyric acid]", "values": [{"measurement": "expression level of DPPIV in CMVs", "setting": "DPPIV", "value": "not changed"}, {"measurement": "expression level of BSEP in CMVs, increase", "setting": "BSEP", "value": 3.2, "unit": "times"}, {"measurement": "expression level of P-gp in CMVs", "setting": "P-gp", "value": "not changed"}, {"measurement": "expression level of mature BSEP, 4PBA-treated vs not treated cells", "setting": "wild-type BSEP; [1]", "value": "higher"}, {"measurement": "expression level of immature BSEP in the endoplasmic reticulum, with vs without 4PBA", "setting": "wild-type BSEP; [2]", "value": "almost the same"}, {"measurement": "expression level of mature BSEP, 4PBA-treated vs not treated cells", "setting": "D482G BSEP; [1]", "value": "higher"}, {"measurement": "expression level of immature BSEP in the endoplasmic reticulum, with vs without 4PBA", "setting": "D482G BSEP; [2]", "value": "almost the same"}, {"measurement": "expression level of mature BSEP, 4PBA-treated vs not treated cells", "setting": "E297G BSEP; [1]", "value": "higher"}, {"measurement": "expression level of immature BSEP in the endoplasmic reticulum, with vs without 4PBA", "setting": "E297G BSEP; [2]", "value": "almost the same"}]}]}
